Laboratory results reported in patent US8455394B2 (priority 2009, dated 2013).

Assays:
[1] = tested on: Leptosphaeria nodorum (LEPTNO); test: In vitro fungitoxicity assay against Leptosphaeria nodorum in copper-minus and copper-plus liquid medium (growth inhibition, light scattering); assay type: cell-based; conditions: Parastagonospora nodorum; compound 0.05 μg/mL, copper-minus medium, 72 h at 25° C.; read-out: LEPTNO % Inhn. Minus Copper Observed
Description: In vitro fungitoxicity assays against Leptosphaeria nodorum (LEPTNO) were conducted using the liquid growth medium described by Coursen and Sisler (American Journal of Botany 1960, 47, 541-549) except that copper micronutrient, normally included as CuSO4, was omitted. The medium, termed “copper-minus”, was prepared by dissolving 10 g glucose, 1.5 g K2HPO4, 2 g KH2PO4 and 1 g (NH4)2SO4 in 1 liter of deionized water and treating the solution with 0.5 g Chelex 100 resin (Bio-Rad Analytical grade, 50-100 mesh, sodium form, cat#142-2822) by stirring at room temperature for 1 h. MgSO4.7H2O (0.5 g) was added, and stirring was continued for a further hour. Trace elements (minus CuSO4), and vitamins described by Coursen and Sisler were added from concentrated stock solutions and the entire medium was sterilized by filtration. Medium containing copper was prepared by adding CuCl2.2H2O to the copper-minus medium at 20 μM. […]
LEPTNO was grown on potato dextrose agar in 9 cm diameter petri dishes for 7 days. […] Microtiter plates were inoculated with 100 μL of this spore suspension and the plates incubated at 25° C. for 72 h before assessing fungal growth by measuring light scattering in a NepheloStar plate reader. Growth inhibition was determined by comparing growth in the presence of test compound with growth in control wells lacking test compound. […]

[2] = tested on: Phytophthora capsici; test: In vitro fungitoxicity assay against Phytophthora capsici in copper-minus AS and copper-plus AS medium; assay type: cell-based; conditions: CuCl2 50 uM without any test compound, across experiments
Description: In vitro fungitoxicity assays against Phytophthora capsici were conducted using the asparagine-sucrose (AS) medium described in Canadian Journal of Microbiology 1961, 7, 15-25, except that copper micronutrient, normally included as CuSO4, was omitted. The medium, termed “copper-minus AS”, was prepared by dissolving 2 g asparagine, 0.43 g KH2PO4, 0.3 g K2HPO4, 0.4 mL of a 0.5 mg/mL thiamine-HCl solution and 15 g sucrose in 1 liter of deionized water and treating the solution with 0.5 g Chelex 100 resin (Bio-Rad Analytical grade, 50-100 mesh, sodium form, cat#142-2822) by stirring at room temperature for 1 h. The pH was adjusted to 6.4, then MgSO4.7H2O (100 μg/mL), FeSO4.7H2O (1 μg/mL), CaCl2 (50 μg/mL), ZnSO4.7H2O (1 μg/mL), NaMoO4.2H2O (0.2 μg/mL) and MnCl2.4H2O (0.2 μg/mL) were added and the entire medium was sterilized by filtration. […]
Phytophthora capsici was grown on petri plates, 9 cm in diameter, containing 15 mL V-8 agar, pH 7.0, containing 200 mL V-8 juice, 4 g CaCO3, and 20 g agar per liter. […] Microtiter plates were inoculated with 100 μL of spore suspension and incubated at 25° C. for 48 h before assessing fungal growth by measuring light scattering in a NepheloStar plate reader. Growth inhibition was determined by comparing growth in the presence of test compound with growth in control wells lacking test compound. […]

`O=C(N/N=C/c1cccc(F)c1O)c1ccccc1` [Compound 1] showed an inhibition of growth at 0.05 µg/mL [1] of 4.4%.

For `O.O.[Cl][Cu][Cl]` [CuCl2, CuCl2.2H2O], the “% Inhn (copper chloride alone; printed in column Minus copper Observed)” value [2] was 4.5 ± 7.9%.
